# Experimental data as given in PubChem BioAssay (NCI).
#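 Five compound concentrations were applied to cells in 96-well plates for 48 hours; endpoints were derived by simple linear interpolation of the resulting dose-response curve. TGI: concentration producing complete growth inhibition.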
# Columns and labels:
# Test in all cases: NCI anticancer screen, dose series, 48 h
# MCF7 breast = tested on: MCF7 breast
# DU-145 prostate = tested on: DU-145 prostate
# SF-268 CNS = tested on: SF-268 CNS
# SNB-19 CNS = tested on: SNB-19 CNS
# TK-10 renal = tested on: TK-10 renal
# OVCAR-3 ovarian = tested on: OVCAR-3 ovarian
# PC-3 prostate = tested on: PC-3 prostate
# HCT-116 colon = tested on: HCT-116 colon
# MALME-3M melanoma = tested on: MALME-3M melanoma
# HOP-92 NSCLC = tested on: HOP-92 NSCLC
# EKVX NSCLC = tested on: EKVX NSCLC
# UO-31 renal = tested on: UO-31 renal
# RXF 393 renal = tested on: RXF 393 renal
# UACC-62 melanoma = tested on: UACC-62 melanoma
# SK-OV-3 ovarian = tested on: SK-OV-3 ovarian
# KM12 colon = tested on: KM12 colon
# MDA-MB-231 breast = tested on: MDA-MB-231 breast
# NCI-H226 lung = tested on: NCI-H226 lung
# OVCAR-8 ovarian = tested on: OVCAR-8 ovarian
# HT29 colon = tested on: HT29 colon
# NCI-H522 lung = tested on: NCI-H522 lung
# A498 renal = tested on: A498 renal
# LOX IMVI melanoma = tested on: LOX IMVI melanoma
# NCI-H23 lung = tested on: NCI-H23 lung
# MDA-MB-435 = tested on: MDA-MB-435
# MDA-N = tested on: MDA-N
# HOP-62 NSCLC = tested on: HOP-62 NSCLC
# SR leukemia = tested on: SR leukemia
# HCT-15 colon = tested on: HCT-15 colon
# 786-0 renal = tested on: 786-0 renal
# K-562 leukemia = tested on: K-562 leukemia
# SF-539 CNS = tested on: SF-539 CNS
# UACC-257 melanoma = tested on: UACC-257 melanoma
# T-47D breast = tested on: T-47D breast
# U251 CNS = tested on: U251 CNS
# IGROV1 ovarian = tested on: IGROV1 ovarian
# A549 NSCLC = tested on: A549 NSCLC
# SK-MEL-2 melanoma = tested on: SK-MEL-2 melanoma
# OVCAR-5 ovarian = tested on: OVCAR-5 ovarian
# SN12C renal = tested on: SN12C renal
# NCI/ADR-RES ovarian = tested on: NCI/ADR-RES ovarian
# HS 578T breast = tested on: HS 578T breast
# CAKI-1 renal = tested on: CAKI-1 renal
# RPMI-8226 leukemia = tested on: RPMI-8226 leukemia
# COLO 205 colon = tested on: COLO 205 colon
# SK-MEL-5 melanoma = tested on: SK-MEL-5 melanoma
# OVCAR-4 ovarian = tested on: OVCAR-4 ovarian
# NCI-H460 lung = tested on: NCI-H460 lung
# ACHN renal = tested on: ACHN renal
# M14 melanoma = tested on: M14 melanoma
# SNB-75 CNS = tested on: SNB-75 CNS
# BT-549 breast = tested on: BT-549 breast
# SF-295 CNS = tested on: SF-295 CNS
# HL-60(TB) leukemia = tested on: HL-60(TB) leukemia
# SK-MEL-28 melanoma = tested on: SK-MEL-28 melanoma
# MOLT-4 leukemia = tested on: MOLT-4 leukemia
# SW-620 colon = tested on: SW-620 colon
# CCRF-CEM leukemia = tested on: CCRF-CEM leukemia
# HCC-2998 colon = tested on: HCC-2998 colon
smiles,measurement,setting,value
Nc1nc(N)c(Cn2ccnc2)c(=O)[nH]1,TGI,MCF7 breast,> 100 µM
same,TGI,DU-145 prostate,> 100 µM
same,TGI,SF-268 CNS,> 100 µM
same,TGI,SNB-19 CNS,> 100 µM
same,TGI,TK-10 renal,> 100 µM
same,TGI,OVCAR-3 ovarian,> 100 µM
same,TGI,PC-3 prostate,> 100 µM
same,TGI,HCT-116 colon,> 100 µM
same,TGI,MALME-3M melanoma,> 100 µM
same,TGI,HOP-92 NSCLC,> 100 µM
same,TGI,EKVX NSCLC,> 100 µM
same,TGI,UO-31 renal,> 100 µM
same,TGI,RXF 393 renal,> 100 µM
same,TGI,UACC-62 melanoma,> 100 µM
same,TGI,SK-OV-3 ovarian,> 100 µM
same,TGI,KM12 colon,> 100 µM
same,TGI,MDA-MB-231 breast,> 100 µM
same,TGI,NCI-H226 lung,> 100 µM
same,TGI,OVCAR-8 ovarian,> 100 µM
same,TGI,HT29 colon,> 100 µM
same,TGI,NCI-H522 lung,> 100 µM
same,TGI,A498 renal,> 100 µM
same,TGI,LOX IMVI melanoma,> 100 µM
same,TGI,NCI-H23 lung,> 100 µM
same,TGI,MDA-MB-435,> 100 µM
same,TGI,MDA-N,> 100 µM
same,TGI,HOP-62 NSCLC,> 100 µM
same,TGI,SR leukemia,> 100 µM
same,TGI,HCT-15 colon,> 100 µM
same,TGI,786-0 renal,> 100 µM
same,TGI,K-562 leukemia,> 100 µM
same,TGI,SF-539 CNS,> 100 µM
same,TGI,UACC-257 melanoma,> 100 µM
same,TGI,T-47D breast,> 100 µM
same,TGI,U251 CNS,> 100 µM
same,TGI,IGROV1 ovarian,> 100 µM
same,TGI,A549 NSCLC,> 100 µM
same,TGI,SK-MEL-2 melanoma,> 100 µM
same,TGI,OVCAR-5 ovarian,> 100 µM
same,TGI,SN12C renal,> 100 µM
same,TGI,NCI/ADR-RES ovarian,> 100 µM
same,TGI,HS 578T breast,> 100 µM
same,TGI,CAKI-1 renal,> 100 µM
same,TGI,RPMI-8226 leukemia,> 100 µM
same,TGI,COLO 205 colon,> 100 µM
same,TGI,SK-MEL-5 melanoma,> 100 µM
same,TGI,OVCAR-4 ovarian,> 100 µM
same,TGI,NCI-H460 lung,> 100 µM
same,TGI,ACHN renal,> 100 µM
same,TGI,M14 melanoma,> 100 µM
same,TGI,SNB-75 CNS,> 100 µM
same,TGI,BT-549 breast,> 100 µM
same,TGI,SF-295 CNS,> 100 µM
O=[N+]([O-])c1ccccc1N=Nc1c(O)[nH]c2ccc(Br)cc12,TGI,MCF7 breast,59.9 µM
same,TGI,DU-145 prostate,31.5 µM
same,TGI,SF-268 CNS,51.9 µM
same,TGI,SNB-19 CNS,45.2 µM
same,TGI,HL-60(TB) leukemia,> 68.8 µM
same,TGI,TK-10 renal,30.8 µM
same,TGI,OVCAR-3 ovarian,35.4 µM
same,TGI,PC-3 prostate,33.3 µM
same,TGI,HCT-116 colon,> 67 µM
same,TGI,SK-MEL-28 melanoma,> 61.9 µM
same,TGI,MOLT-4 leukemia,> 78.5 µM
same,TGI,MALME-3M melanoma,> 100 µM
same,TGI,EKVX NSCLC,> 59 µM
same,TGI,UO-31 renal,44.7 µM
same,TGI,RXF 393 renal,> 47.5 µM
same,TGI,UACC-62 melanoma,66.8 µM
same,TGI,SK-OV-3 ovarian,> 77.3 µM
same,TGI,KM12 colon,36.5 µM
same,TGI,MDA-MB-231 breast,25.2 µM
same,TGI,NCI-H226 lung,> 48.9 µM
same,TGI,OVCAR-8 ovarian,44 µM
same,TGI,HT29 colon,29.3 µM
same,TGI,NCI-H522 lung,> 34.8 µM
same,TGI,A498 renal,> 45.8 µM
same,TGI,LOX IMVI melanoma,> 61 µM
same,TGI,NCI-H23 lung,21.3 µM
same,TGI,MDA-MB-435,> 94.4 µM
same,TGI,MDA-N,> 60.5 µM
same,TGI,HOP-62 NSCLC,28.3 µM
same,TGI,SR leukemia,> 40.5 µM
same,TGI,SW-620 colon,> 62.4 µM
same,TGI,HCT-15 colon,> 56 µM
same,TGI,786-0 renal,40.4 µM
same,TGI,K-562 leukemia,> 68.3 µM
same,TGI,SF-539 CNS,> 100 µM
same,TGI,UACC-257 melanoma,> 50.3 µM
same,TGI,T-47D breast,> 78.7 µM
same,TGI,U251 CNS,> 53.3 µM
same,TGI,IGROV1 ovarian,20.1 µM
same,TGI,A549 NSCLC,21 µM
same,TGI,CCRF-CEM leukemia,31.9 µM
same,TGI,SK-MEL-2 melanoma,54.1 µM
same,TGI,OVCAR-5 ovarian,33.3 µM
same,TGI,SN12C renal,44.8 µM
same,TGI,NCI/ADR-RES ovarian,40.6 µM
same,TGI,HS 578T breast,46.2 µM
same,TGI,CAKI-1 renal,33.1 µM
same,TGI,RPMI-8226 leukemia,> 68.6 µM
same,TGI,COLO 205 colon,33.9 µM
same,TGI,SK-MEL-5 melanoma,> 37.7 µM
same,TGI,OVCAR-4 ovarian,> 59 µM
same,TGI,NCI-H460 lung,25 µM
same,TGI,ACHN renal,22.9 µM
same,TGI,M14 melanoma,44.7 µM
same,TGI,HCC-2998 colon,34.1 µM
same,TGI,SNB-75 CNS,36.1 µM
same,TGI,BT-549 breast,> 47.3 µM
same,TGI,SF-295 CNS,34.3 µM
